Reference: ChEMBL document CHEMBL4813985, “Lead optimization generates selenium-containing miconazole CYP51 inhibitors with improved pharmacological profile for the treatment of fungal infections” (Eur J Med Chem, 2021)
In brackets after ≈: the same amount, converted by molar mass.

Experiments:
[1] = Metabolic stability in mouse liver microsomes assessed as clearance; format: ADME, Microsome; settings: read-out: CLH
[2] = Hemolytic activity in rabbit RBC assessed as hemolysis ratio at 16 ug/ml measured after 3 hrs by microplate reader assay relative to control; format: ADME, cell-based, Oryctolagus cuniculus, Erythrocyte; settings: rabbit red blood cells (erythrocytes), at 16 µg/mL, read-out: Activity
[3] = Hemolytic activity in rabbit RBC assessed as hemolysis ratio at 2 ug/ml measured after 3 hrs by microplate reader assay relative to control; format: ADME, cell-based, Oryctolagus cuniculus, Erythrocyte; settings: rabbit red blood cells (erythrocytes), at 2 µg/mL, read-out: Activity
[4] = system: Candida albicans; assay: Antifungal activity against fluconazole-resistant Candida albicans 17# assessed as inhibition of microbial growth after 24 hrs by broth microdilution method; format: functional
[5] = system: Candida albicans; assay: Antifungal activity against fluconazole-resistant Candida albicans 901 assessed as inhibition of microbial growth after 24 hrs by broth microdilution method; format: functional
[6] = system: Candida albicans; assay: Antifungal activity against Candida albicans CPCC400616 measured after 24 hrs by broth microdilution assay; format: functional
[7] = system: Candida parapsilosis; assay: Antifungal activity against Candida parapsilosis ATCC 22019 measured after 24 hrs by broth microdilution assay; format: functional; settings: Lodderomyces parapsilosis
[8] = system: Candida albicans; assay: Antifungal activity against Candida albicans ATCC SC5314 measured after 24 hrs by broth microdilution assay; format: functional
[9] = Metabolic stability in mouse liver microsomes assessed as half life; format: ADME, Microsome
[10] = system: [Candida] zeylanoides; assay: Antifungal activity against Candida zeylanoides CMGCC2.3739 measured after 24 hrs by broth microdilution assay; format: functional; settings: Dujonia zeylanoides
[11] = system: MDA-MB-231; assay: Cytotoxicity against human MDA-MB-231 cells assessed as reduction in cell viability incubated for 96 hrs by MTT assay; settings: MDA-MB-231, 96 h
[12] = system: HL-60; assay: Cytotoxicity against human HL-60 cells assessed as reduction in cell viability incubated for 96 hrs by MTT assay; format: cell-based; settings: HL-60, 96 h
[13] = system: Nakaseomyces glabratus; assay: Antifungal activity against Candida glabrata measured after 24 hrs by broth microdilution assay; format: functional
[14] = system: PC-3; assay: Cytotoxicity against human PC3 cells assessed as reduction in cell viability incubated for 96 hrs by MTT assay; format: cell-based; settings: PC-3, 96 h, read-out: IC50
[15] = system: Candida albicans; assay: Antifungal activity against fluconazole-resistant Candida albicans 904 assessed as inhibition of microbial growth after 24 hrs by broth microdilution method; format: functional
[16] = system: Erythrocyte; assay: Hemolytic activity in rabbit RBC measured after 3 hrs by microplate reader assay; format: ADME, cell-based, Oryctolagus cuniculus
[17] = Hemolytic activity in rabbit RBC assessed as hemolysis ratio at 8 ug/ml measured after 3 hrs by microplate reader assay relative to control; format: ADME, cell-based, Oryctolagus cuniculus, Erythrocyte; settings: rabbit red blood cells (erythrocytes), at 8 µg/mL, read-out: Activity
[18] = system: Candida albicans; assay: Antifungal activity against fluconazole-resistant Candida albicans 632 assessed as inhibition of microbial growth after 24 hrs by broth microdilution method; format: functional
[19] = system: Aspergillus fumigatus; assay: Antifungal activity against Aspergillus fumigatus CMGCC3.7795 measured after 72 hrs by broth microdilution assay; format: functional
[20] = Hemolytic activity in rabbit RBC assessed as hemolysis ratio at 1 ug/ml measured after 3 hrs by microplate reader assay relative to control; format: ADME, cell-based, Oryctolagus cuniculus, Erythrocyte; settings: rabbit red blood cells (erythrocytes), at 1 µg/mL, read-out: Activity
[21] = system: Candida albicans; assay: Antifungal activity against fluconazole-resistant Candida albicans CaR assessed as inhibition of microbial growth after 24 hrs by broth microdilution method; format: functional
[22] = Hemolytic activity in rabbit RBC assessed as hemolysis ratio at 4 ug/ml measured after 3 hrs by microplate reader assay relative to control; format: ADME, cell-based, Oryctolagus cuniculus, Erythrocyte; settings: rabbit red blood cells (erythrocytes), at 4 µg/mL, read-out: Activity
[23] = system: MCF-10A; assay: Cytotoxicity against human MCF-10A cells assessed as reduction in cell viability incubated for 96 hrs by MTT assay; format: cell-based; settings: read-out: IC50
[24] = system: Pichia kudriavzevii; assay: Antifungal activity against Candida krusei AS2.1045 measured after 24 hrs by broth microdilution assay; format: functional
[25] = system: Cryptococcus neoformans; assay: Antifungal activity against Cryptococcus neoformans CMGCC2.3161 measured after 72 hrs by broth microdilution assay; format: functional

Work on Clc1ccc(C(Cn2ccnc2)[Se]Cc2ccccc2Cl)c(Cl)c1 (stereo not given) yielded a CLint scaled [1] of 1310 mL/min/kg, a hemolysis at 3 h, 16 ug/ml [2] of 98.2% and a hemolysis at 3 h, 2 ug/ml [3] of 3.15%. The MIC [4] was 0.13 µg/mL, the MIC [5] was 0.5 µg/mL and the MIC [6] was 0.02 µg/mL (≈ 0.045 µM). It also gave an MIC [7] of 0.13 µg/mL (≈ 0.292 µM), an MIC [8] of 0.01 µg/mL (≈ 0.0225 µM) and a half-life [9] of 4.2 min. For the same compound, the MIC [10] was 1 µg/mL (≈ 2.25 µM), the IC50 [11] was 9.06 µM and the IC50 [12] was 1.02 µM. The MIC [13] was 0.5 µg/mL (≈ 1.12 µM), the IC50 [14] was 13.1 µM and the MIC [15] was 0.25 µg/mL. It also gave an MHC [16] of 4 µg/mL, a hemolysis at 3 h, 8 ug/ml [17] of 93.2% and an MIC [18] of 1 µg/mL. For the same compound, the MIC [19] was 2 µg/mL (≈ 4.5 µM), the hemolysis at 3 h, 1 ug/ml [20] was 0% and the MIC [21] was 0.06 µg/mL. It also gave a hemolysis at 3 h, 4 ug/ml [22] of 58.9%, an IC50 [23] of 30.2 µM and an MIC [24] of 0.13 µg/mL (≈ 0.292 µM). For the same compound, the MIC [25] was 0.25 µg/mL (≈ 0.562 µM).
